The test system of assay [1] is B103 (APP695) cells. The assay can be described thus: intracellular APP level and pulse-chase turnover in B103 cells. Format: cell-based, rat.
Assay [2] has as its system B103 (APP695) cells. The assay can be described thus: APP secretion by transfected B103 (APP695) cells, Western blotting. The assay is classed as cell-based, rat.
Another assay addresses T1, Crk (Homo sapiens, UniProt P46108).
T1 construct: expressed in transfected cells; host or cells: 293T cells
Kind of assay: co-immunoprecipitation with Crk in 293T cells. The assay is classed as binding. To be noted: anti-PBP-TAG immunoprecipitation, Western blot with antibody against Crk. The protocol:
Since PBP has two consensus sequences for Crk binding, the interaction between PBP and Crk was also examined. The expression plasmid containing PBP cDNA attached to TAG and a plasmid containing Crk cDNA were co-transfected into 293T cells. Forty-eight hrs later, cells were lysed and proteins immunoprecipitated with anti-PBP-TAG and run on SDS acrylamide gels.
For immunoprecipitation of the large hydrophilic loop of PSs or Crk with PBP, cells were lysed in RIPA buffer (100 mM NaCl, 0.5% NP-40, 0.5% DOC, 0.1% SDS, 50 mM Tris, pH 7.5, 1 mM PMSF and 1 μg/ml aprotinin, 1 μg/l leupeptin) on ice for 30 min. For immunoprecipitation of full length PS1 with PBP, RIPA buffer with 1% NP40 but without DOC and SDS was used. Cell lysates were spun for 10 min at 10,000 g. The resulting supernatants were preadsorbed with anti-mouse IgG-agarose (Sigma) for 4 hours at 4° C. After centrifugation, antibody 12CA5 and anti-mouse IgG-agarose were added at 4° C. overnight. After incubation with anti-mouse IgG-agarose, immunoprecipitates were subjected to SDS-polyacrylamide gel electrophoresis and transferred to Immobilon (Millipore, Bedford, Mass.). Western blot analysis with anti-FLAG and 12CA5 monoclonal antibodies or an antibody against Crk was then performed. The bound antibodies were detected by the ECL-plus chemiluminescence system (Amersham, Arlington Heights, Ill.).
Background: A western blot detects proteins with antibodies after separation by electrophoresis.

Another assay relates to HEK293 cells. The assay can be described thus: secretion of endogenous APP751 by HEK293 cells. The assay is classed as cell-based. The following applies: HEK293 cells expressing PBP. The protocol: Western blotting, metabolic labeling and immunoprecipitation: For western blotting, cells were washed twice with ice-cold PBS and lysed in lysis buffer (1% Triton, 50 mM Hepes pH 7.5, 50 mM NaCl, 5 mM EDTA, 1 mM Na3VO4, 50 mM NaF, 10 mM Na4P2O7, plus a mixture of protease inhibitors (Complete Mini; Roche, Ind., USA). Protein concentrations were determined by Coomassie Plus (Pierce; IL, USA). The same amount of protein from each sample was separated on Novex pre-cast polyacrylamide gels (Invitrogen; CA, USA), and transferred to Immobulin membranes (Millipore; MA, USA). The membranes were blocked with 5% non-fat milk in Tris-buffered saline for 1 hour at room temperature. Following overnight incubation at 4° C. with primary antibodies, the antigens are detected with horseradish peroxidase-conjugated secondary antibodies (Bio-Rad; CA, USA; 1:20,000), an ECL kit (Amersham; NJ, USA), and exposed to films. For pulse-chase experiments, cells were grown to 80% confluency and incubated in methionine-free DMEM for 90 min. […] Protein concentrations were determined and the same amounts of proteins were immunoprecipitated with antibodies at 4° C. overnight 25 μl of anti-mouse IgG agarose (Roche) was then added to each sample and incubated at 4° C. for 2 hours on a rocker platform. […] The gels were dried and subjected to autoradiography and quantitated by NIH image. […]

T1 sequence (P46108 whole entry, species assumed): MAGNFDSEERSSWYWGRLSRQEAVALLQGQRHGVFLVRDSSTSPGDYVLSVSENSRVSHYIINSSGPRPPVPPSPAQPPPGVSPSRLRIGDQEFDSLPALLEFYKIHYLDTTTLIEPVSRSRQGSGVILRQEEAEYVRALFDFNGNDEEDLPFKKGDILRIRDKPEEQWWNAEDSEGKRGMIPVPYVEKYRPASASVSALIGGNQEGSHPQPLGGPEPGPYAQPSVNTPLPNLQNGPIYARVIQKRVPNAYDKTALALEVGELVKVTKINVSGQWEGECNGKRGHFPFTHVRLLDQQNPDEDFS

Regarding “PBP: novel 2027 amino acid protein, 233 kD, binds presenilins and Crk; expressed from cDNA in cells (KYGVVICSFRGSVPQGLVLEIGETVQILEKCEGWYRGVSTKKPNVKGLFPANYIHLK; listed as Mus musculus)”, the “intracellular APP protein level, pulse-chase” value in the assay with B103 (APP695) cells [1] (10 min 35S-methionine label, chase 15-60 min) is “rapidly decreased”. The “full length APP, intracellular level” value in the assay on B103 (APP695) cells [1] (APP695/PBP relative to APP695 cells, antibodies 6E10 and 22C11) is reported as “reduced”. In addition, the “abundance of APP mRNAs” value with B103 (APP695) cells [2] (RT-PCR) is recorded as “not altered”. The “secretion of sAPPβ” value in the assay with B103 (APP695) cells [2] (antibodies 22C11, GID and 6E10, vs cells without PBP) is given as “Less secretion”. Moreover, in the assay on B103 (APP695) cells [2] (co-expression with WT PS1 or FAD PS1 (L392V), relative to PBP alone), the sAPPα secretion entry was “further reduced”. The “secretion of β-laminin” value with B103 (APP695) cells [2] (specificity control) is recorded as “no effect”. For the same substance, in the assay on B103 (APP695) cells [2] (stable clones vs empty vector, antibody 6E10), the “secretion of sAPPα” value is “dramatically decreased”. Further, the APP secretion entry in the assay with B103 (APP695) cells [2] (transient transfection, uncloned population) is listed as “reduction”. The “co-precipitation with Crk” value with Crk is “co-precipitates”. Besides, the “secretion of endogenous APP751” value with HEK293 cells is on record as “reduced”.

These data come from patent US20030077740A1, “Presenilin/Crk binding polypeptides (PCBP) and methods of use thereof” (priority 2001, published 2003).
